Measurements reported in article PMC8429736, “Pharmacological characterization of mutant huntingtin aggregate-directed PET imaging tracer candidates” (Scientific Reports, 2021).

Legend:
Exon1-Q46 aggregates = target: T1, Exon1-Q46 aggregates (Homo sapiens, UniProt P42858, INS38QQQQQQQQQQQQQQQQQQQQQQQQQ); assay: RAFTA saturation binding, recombinant Exon1-Q46 aggregates
T1 construct: MBP-HTT(1-89)Q46-His(6x); MBP (N, cleaved yes); made in house; host or cells: E. coli BL21 (DE3)

[1] = tested on: mHTT aggregates in zQ175 brain homogenates; assay: RAFTA with zQ175 brain homogenates; assay type: binding, mouse
Protocol: For RAFTA and MSD assays, mouse brains were transferred to lysis tubes and individually homogenized 1:3 (w/v) in brain lysis buffer (10 mM Tris pH 7.4, 800 mM NaCl, 1 mM EDTA, 1 × Protease inhibitor, 10% Sucrose, 0.5% Triton X-100, Benzonase (1:1000)) using a pre-cooled MP FastPrep homogenizer (3 × 30 s, 6.0 m/sec). Crude homogenates were transferred to LoBind reaction tubes (Eppendorf) and centrifuged at 15,700×g for 10 min at 4 °C. The supernatant was collected, and the pellet fraction was resuspended in brain lysis buffer. Generally, a minimum of three whole brains were lysed and fractions were pooled after homogenization to reduce assay variability due to inter-animal variability.
The total protein concentration of samples was determined by BCA assay (ThermoFisher Scientific, #23227), according to standard procedures and protein concentrations were adjusted to 5–10 mg/mL in brain lysis buffer. […]
For RAFTA analysis, frozen mouse brain homogenates were thawed on the day of the experiment and diluted with assay buffer (50 mM Tris pH 8.0; 150 mM NaCl) to a concentration of 500 µg/mL total protein. […] In experiments where non-specific binding (NSB) was determined, the incubation medium contained 5 µM of non-labeled (cold) CHDI-180, which was added prior to the addition of radioligand and incubated for 20 min at room temperature. […]

[2] = tested on: mHTT aggregates in HOM zQ175 brain sections; assay: In vitro ARG, single concentration, HOM zQ175 brain sections; assay type: binding, mouse; conditions: 0.5 nM
Protocol: Twenty µm-thick sections were prepared from brains of disease mouse models and WT mice or human post-mortem brain samples by using a cryostat, mounted on superfrost slides and stored at -80 °C for a maximum of 2 weeks. On the day of the experiment, slides were adapted to room temperature for 30 min and then equilibrated by immersion into assay buffer (50 mM Tris–HCl pH 7.4; 120 mM NaCl; 5 mM KCl; 2 mM CaCl2; 1 mM MgCl2) for 20 min at room temperature.
Radioligand solutions were prepared in assay buffer. Optimal radioligand concentrations were determined in advance based on signal-to-background ratio obtained in mouse or human brain tissue. The solutions were mixed in a Coplin jar (Sigma, S5516-6EA) by gently shaking at 175 rpm for 10 min at room temperature. Sections were incubated by immersion into assay buffer containing either only radioligand (total binding or TB) or radioligand plus 10 µM of unlabeled compound (non-specific binding or NSB) for 60 min at room temperature. Afterwards slides were washed three times for 10 min with ice-cold washing buffer (50 mM Tris–HCl (pH 7.4)) at 4 °C and dipped for three seconds in ice-cold distilled water to remove buffer salts. The slides were dried for 3 h at 30 °C and exposed for 96 h to a Tritium Phosphor Screen (GE Healthcare, Fuji BAS-TR 2025 E) Stored radiation energy on the screen was scanned using a Phosphorimager (GE Healthcare, Typhoon FLA 7000). Densitometric data analysis of radioligand binding was performed using the MCID Analysis 7.1 software (Interfocus Imaging Ltd.). Radioisotope concentration standards (American Radiolabeled Chemicals, ART 0123C and ART 0123B) were exposed with each specimen to enable conversion of density values into tissue-equivalent ligand concentrations (e.g., fmol/mg tissue). A standard curve was created to relate the system´s internal relative optical density measurement (ROD; an inverse logarithmic function of gray level values) to the set of standard values (e.g., isotope concentration). The standard´s isotope concentration (e.g., nCi/mg) is therefore converted into tissue-equivalent ligand concentrations (e.g., fmol/mg tissue) by referring to the radioligand´s specific activity (e.g., Ci/mmol) and including decay-correction. After phosphor screen exposure the human brain sections were stained for 4 min with 0.1% toluidine blue dye solution (Sigma-Aldrich) and rinsed twice in distilled water. To differentiate gray and white matter, the slides were decolorized with 70% ethanol (Merck) for 2–5 min followed by rinse in distilled water. Gray matter appears as gray color and white matter as bluish.

T1 sequence (P42858 with tags, fused parts or gaps with the stated changes): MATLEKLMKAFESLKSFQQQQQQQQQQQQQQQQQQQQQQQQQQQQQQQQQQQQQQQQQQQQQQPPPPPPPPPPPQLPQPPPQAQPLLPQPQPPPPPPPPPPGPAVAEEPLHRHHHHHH

Compound: COc1ccc(COc2ccc3oc(-c4ccc(=O)n(C)n4)nc3c2)nc1 [CHDI-180]
- Kd (Exon1-Q46 aggregates): 5.6 nM
- RAFTA Bmax (Exon1-Q46 aggregates): 1456 fmol/mg
- signal in pelleted material vs age-matched WT mice ([1]; 3 nM radioligand, cortices, striata or hippocampi of 9-month-old HET zQ175): > tenfold
- binding in brain homogenates with age ([1]; 3-, 6-, 9-, 12-month-old HOM zQ175): age-dependent increase
- NSB ([2]; 3 month HOM Q175, CTX): 1.3 ± 2.2 fmol/mg
- SB ([2]; 3 month HOM Q175, CTX): 4.3 ± 2.3 fmol/mg
- TB ([2]; 3 month HOM Q175, CTX): 5.6 ± 0.3 fmol/mg
- NSB ([2]; 3 month HOM Q175, HPC): 0.3 ± 0.3 fmol/mg
- SB ([2]; 3 month HOM Q175, HPC): 4.8 ± 0.4 fmol/mg
- TB ([2]; 3 month HOM Q175, HPC): 5.1 ± 0.3 fmol/mg
- NSB ([2]; 3 month HOM Q175, STR): 0.4 ± 0.4 fmol/mg
- SB ([2]; 3 month HOM Q175, STR): 3.5 ± 0.3 fmol/mg
- TB ([2]; 3 month HOM Q175, STR): 3.9 ± 0.5 fmol/mg
- NSB ([2]; 6 month HOM Q175, CTX): 0.2 ± 0.4 fmol/mg
- SB ([2]; 6 month HOM Q175, CTX): 24.4 ± 1.4 fmol/mg
- TB ([2]; 6 month HOM Q175, CTX): 24.6 ± 1.0 fmol/mg
- NSB ([2]; 6 month HOM Q175, HPC): 0.1 ± 0.0 fmol/mg
- SB ([2]; 6 month HOM Q175, HPC): 25.0 ± 1.6 fmol/mg
- TB ([2]; 6 month HOM Q175, HPC): 25.1 ± 1.6 fmol/mg
- NSB ([2]; 6 month HOM Q175, STR): 0.3 ± 0.2 fmol/mg
- SB ([2]; 6 month HOM Q175, STR): 15.8 ± 2.7 fmol/mg
- TB ([2]; 6 month HOM Q175, STR): 16.1 ± 2.9 fmol/mg
- NSB ([2]; 9 month HOM Q175, CTX): 0.9 ± 0.8 fmol/mg
- SB ([2]; 9 month HOM Q175, CTX): 48.8 ± 8.3 fmol/mg
- TB ([2]; 9 month HOM Q175, CTX): 49.7 ± 7.4 fmol/mg
- NSB ([2]; 9 month HOM Q175, HPC): 0.2 ± 0.2 fmol/mg
- SB ([2]; 9 month HOM Q175, HPC): 41.3 ± 2.2 fmol/mg
- TB ([2]; 9 month HOM Q175, HPC): 41.5 ± 2.4 fmol/mg
- NSB ([2]; 9 month HOM Q175, STR): 0.4 ± 0.4 fmol/mg
- SB ([2]; 9 month HOM Q175, STR): 28.4 ± 2.4 fmol/mg
- TB ([2]; 9 month HOM Q175, STR): 28.8 ± 2.7 fmol/mg
- NSB ([2]; 12 month HOM Q175, CTX): 0.8 ± 0.7 fmol/mg
- SB ([2]; 12 month HOM Q175, CTX): 70.2 ± 10.5 fmol/mg
- TB ([2]; 12 month HOM Q175, CTX): 70.9 ± 11.0 fmol/mg
- NSB ([2]; 12 month HOM Q175, HPC, n=2): 0.4 ± 0.7 fmol/mg
- NSB ([2]; 12 month HOM Q175, STR): 0.4 ± 0.3 fmol/mg
- SB ([2]; 12 month HOM Q175, STR): 41.3 ± 2.8 fmol/mg
- TB ([2]; 12 month HOM Q175, STR): 41.6 ± 3.1 fmol/mg
